# Data taken from EP0419676B1, “THIONAPHTHALENE DERIVATIVES, METHOD OF PRODUCING THE SAME, AND ANTIALLERGIC AGENT CONTAINING THE SAME” (TEIJIN LIMITED, priority 1989, dated 1990).
# Where two headings read alike, the source gives them in different places.
# Key:
# [1] = test system: anti-TNP IgE antibody production; experiment: IgE antibody production suppressive effect: anti-TNP IgE production by cultured spleen cells of TNP-KLH-immunized mouse; assay type: cell-based, BALB/C mouse; conditions: for Anti-TMP antibody production IgE, value in brackets (IgE production dependency on the antigen) / Anti-TMP antibody production IgE: TNP-KLH 10 ng/ml; for Anti-TMP antibody production IgE, value in brackets (IgE production dependency on the antigen): no addition 8.5; for Anti-TMP antibody production IgE: no addition 13.0
# Protocol: (§1) An 8 weeks old BALB/C mouse (♀) was immunized by an intraperitoneal injection of 10 µg of TNP-KLH (trinitrophenyl-key hole limpet hemocyanine) and 2 mg of aluminum hydroxide gel, and after 3 weeks, 1 µg of TNP-KLH and 2 mg of aluminum hydroxide gel were boosted, and 4 weeks later, the spleen was enucleated.
# (§2) The spleen cells (6 x 10⁶) were cultured together with 10 ng/ml of TNP-KLH, in the presence or non-presence of the compound of the present invention (10⁻⁵ to 10⁻⁷ M), in 1 ml of RPMI-1640 medium (containing 10% fetal bovine serum) for 2 days, followed by washing to remove the antigen and the drug, and the washed cells were resuspended in a fresh medium containing no antigen and further cultured for 5 days. All cultivations were performed under 5% CO₂ at 37°C. After completion of the culturing, the supernatant was recovered, and the concentration of anti-TNP IgE or anti-TNP IgG antibody was determined by an antigen and isotype specific immunoassay. […]
# The values in the brackets ( ) indicate the values of the spontaneous IgE production amount observed when TNP-KLH was not added, and represent the IgE production dependency on the antigen.
# (§3) The same experimental methods were used for the compounds shown below, and IgE antibody production suppressive effects were evaluated. […] (Exemplary compound VI - (1)): methyl (6,7-dimethoxy-2-naphthylthio)acetate (Exemplary compound V - (4)): N-(2-methoxycarbonylphenyl)-(6,7-dihydroxy-2-naphthylthio)acetamide (Exemplary compound V - (2)): N-tetrazolyl(6,7-dihydroxy-2-naphthylthio)acetamide Table 2
# [2] = test system: peritoneal mast cells of rat; experiment: Histamine release from IgE-sensitized peritoneal mast cells, DNP-As antigen (allergic release); assay type: cell-based, Sprague-Dawley strain male rat
# Protocol: (§4) To a Sprague-Dawley strain male rat (10 weeks or older) was intraperitoneally administered, under ether anesthesia, a diluted rat anti-DNP-As IgE serum at 2 ml/kg. After 16 hours, cells were recovered by washing intraperitoneally with a Tyrode solution containing 0.5% heparin (Ca⁺⁺, Mg⁺⁺, free). Mast cells (5 x 10⁴) separated by overlying in the 30% Ficoll/Tyrode solution and centrifugation were reliberated into the Tyrode solution (Ca⁺⁺, Mg⁺⁺) and incubated with the addition of the drug solution shown in Table 3-1, for 10 minutes, and then DNP-As and phosphatidylserine were added to final concentrations of 20 µg/ml and 25 µg/ml, respectively, followed by incubation for 10 minutes. The reaction was stopped by ice-cooling, and the histamine release in the supernatant was determined by fluorophotometry.
# [3] = test system: peritoneal mast cells of rat; experiment: Histamine release from peritoneal mast cells induced by Compound 48/80 (non-allergic release); assay type: cell-based, Sprague-Dawley strain male rat; conditions: for inhibition at 10 µM: 10⁻⁵ M
# Protocol: as §4, with “fluorophotometry. Regarding the non-allergy release, 5 x 10⁴ of mast cells were investigated by incubation with 0.5 µg/ml of Compound 48/80 for 10 minutes, after the addition of the drug solution shown in Table 3-2.” for “fluorophotometry.”
# [4] = target: T1, Lipoxygenase (Homo sapiens, UniProt P09917); experiment: Lipoxygenase inhibitory activity evaluation: LTB4 and 5-HETE production in A23187-stimulated whole blood; assay type: cell-based, healthy man; conditions: 10⁻⁵ M, A23187 25 µM
# T1 construct: heparin-treated vein blood of a healthy person; from tissue; host or cells: human heparinised venous whole blood (leukocytes)
# T1 sequence (P09917 1-674): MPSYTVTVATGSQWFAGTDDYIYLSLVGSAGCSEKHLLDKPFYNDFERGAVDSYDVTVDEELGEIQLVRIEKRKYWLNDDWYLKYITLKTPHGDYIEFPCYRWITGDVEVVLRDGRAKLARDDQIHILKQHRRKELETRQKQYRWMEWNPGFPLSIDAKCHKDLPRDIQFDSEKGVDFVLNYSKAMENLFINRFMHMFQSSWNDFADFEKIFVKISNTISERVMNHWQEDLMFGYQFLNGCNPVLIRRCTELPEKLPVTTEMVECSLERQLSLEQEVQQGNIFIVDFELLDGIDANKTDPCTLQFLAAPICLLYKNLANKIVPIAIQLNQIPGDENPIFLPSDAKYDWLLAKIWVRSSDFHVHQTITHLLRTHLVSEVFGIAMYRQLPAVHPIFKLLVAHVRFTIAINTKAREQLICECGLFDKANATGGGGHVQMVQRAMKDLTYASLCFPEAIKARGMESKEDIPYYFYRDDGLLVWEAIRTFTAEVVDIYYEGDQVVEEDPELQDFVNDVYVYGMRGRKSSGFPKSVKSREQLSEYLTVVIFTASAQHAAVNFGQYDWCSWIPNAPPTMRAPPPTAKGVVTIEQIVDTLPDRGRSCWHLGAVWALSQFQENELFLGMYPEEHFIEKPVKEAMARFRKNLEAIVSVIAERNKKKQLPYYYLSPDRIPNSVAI
# Protocol: To 1 ml of heparin-treated vein blood of a healthy person without an administration of drugs was added 1 µl of a DMSO solution of the drug test sample listed in Table 5 (final 10⁻⁵ M), and after treatment at 37°C for 5 minutes, 5 µl of a DMSO solution of A23187 was added (final 25 µM) and the treatment carried out at 37°C for 15 minutes, followed by ice-cooling. After the addition of 10 µl of a DMSO solution of 100 ng of 15-HETE as the internal standard substance for quantitation, 0.8 ml of acetonitrile was added, and the precipitates formed were removed by centrifugation. Then, LTB₄ and 5-HETE in the supernatant were subjected to HPLC separation and quantitation (ref. F.J. Sweeney, et al., Prostaglandins Leukotrienes & Med., 28, 73 (1987)).
# [5] = test system: anti-TNP IgG; experiment: Anti-TNP IgG production by cultured spleen cells of TNP-KLH-immunized mouse; assay type: cell-based, BALB/C mouse; conditions: for Anti-TMP antibody production IgG: TNP-KLH 10 ng/ml, no addition 8.1
# Protocol: as §1, §2, §3
# [6] = test system: Rat homologous PCA reaction; experiment: Rat homologous PCA reaction; assay type: in vivo, Sprague-Dawley strain male rat; conditions: p.o., 1 hour before antigen
# Protocol: The back of a Sprague-Dawley strain male rat (6 - 8 w) was depilated, and at one site on both sides thereof, 0.1 ml of a rat anti-ovalbumin IgE serum diluted with physiological saline was intradermally injected under ether anesthesia. After 48 hours, 25 mg/kg of ovalbumin, 25 mg/kg of Evans Blue were intravenously administered to induce the PCA reaction, and after 30 minutes, the skin was peeled off, dipped in a mixture of 0.3% Na₂SO₄·10H₂O/Acetate (3:7), and the dye amount infiltrated was quantitated by absorbance at 620 nm. The drug listed in Table 4 was suspended in 5% gum arabic solution and orally administered 1 hour before the antigen administration.
structure (smiles),measurement,setting,value
"COC(=O)CSc1ccc2cc(O)c(O)cc2c1 [Exemplary compound IV-(1), Methyl (6,7-dihydroxy-2-naphthylthio)acetate]",suppression of anti-TNP IgE antibody production (in words),[1]; 10⁻⁵ to 10⁻⁷ M,suppressed the anti-TNP IgE antibody production dose-dependency
same,"Anti-TMP antibody production IgE, value in brackets (IgE production dependency on the antigen)",[1]; 10⁻⁶ M,1.0 ng/mL
same,Anti-TMP antibody production IgE,[1]; 10⁻⁶ M,5.5 ng/mL
same,"Anti-TMP antibody production IgE, value in brackets (IgE production dependency on the antigen)",[1]; 10⁻⁷ M,2.5 ng/mL
same,Anti-TMP antibody production IgE,[1]; 10⁻⁷ M,7.5 ng/mL
same,suppressive ratio (antigen-dependent IgE production),[1]; antigen-dependent IgE production compared with spontaneous IgE production,70 - 90%
same,suppressive action against allergy histamine release (in words),[2],suppressive actions
same,suppressive action against non-allergy histamine release (in words),[3],weak suppressive actions
same,inhibition at 100 µM,"[3]; Rattus norvegicus, Mast cell, 10 min, Experiment 1, 10⁻⁴ M, Compound 48/80 0.5 µg/ml, read-out: Inhibitory ratio (%) histamine release",23%
same,inhibition at 10 µM,"[3]; Rattus norvegicus, Mast cell, 10 min, Experiment 1, Compound 48/80 0.5 µg/ml, read-out: Inhibitory ratio (%) histamine release",10.5%
same,inhibition at 1 µM,"[3]; Rattus norvegicus, Mast cell, 10 min, Experiment 1, 10⁻⁶ M, Compound 48/80 0.5 µg/ml, read-out: Inhibitory ratio (%) histamine release",-1.9%
same,inhibition at 10 µM,"[3]; Rattus norvegicus, Mast cell, 10 min, Experiment 2, Compound 48/80 0.5 µg/ml, read-out: Inhibitory ratio (%) histamine release",2%
same,5-HETE (Inhibitory ratio %),[4],60%
same,LTB₄ (Inhibitory ratio %),[4],74%
same,Amount of LTB₄ produced,[4]; no addition 125,32 ng/ml/plasma
same,Amount of 5-HETE produced,[4]; no addition 130,52 ng/ml/plasma
same,suppressive effect against the production of anti-TNP IgG (in words),[5],substantially no suppressive effect
same,Anti-TMP antibody production IgG,[5]; 10⁻⁶ M,7.3 µg/mL
same,Anti-TMP antibody production IgG,[5]; 10⁻⁷ M,7.5 µg/mL
same,Suppressive ratio (%) Experiment 1,[6]; 25 mg/kg,14.8%
same,Suppressive ratio (%) Experiment 2,[6]; 25 mg/kg,24.2%
same,Suppressive ratio (%) Experiment 2,[6]; 50 mg/kg,31.3%
